The results in this text go back to patent US20240409519A1, “HYDROGENATED QUINOXALINES” (OTSUKA PHARMACEUTICAL CO., LTD., priority 2021, published 2024).

Data set [1] deals with T1, norepinephrine (NE) uptake (Rattus norvegicus, UniProt Q63380).
T1 construct: used as crude synaptosomal fraction; from tissue; host or cells: rat hippocampus, crude synaptosomal fraction
The data set can be described thus: Norepinephrine (NE) uptake inhibitory activity using rat brain synaptosome. Type of data set: biochemical. The settings on record: rat hippocampus synaptosome, tritium-labeled NE 12 nM; read-out: IC50 (nM), norepinephrine (NE) uptake inhibition. How it is done: Male Wistar rats were decapitated, each brain was removed, and the hippocampus was cut out. […] The homogenate was centrifuged at 1000 g at 4° C. for 10 minutes, and the supernatant was further centrifuged at 20000 g at 4° C. for 20 minutes. The pellet was suspended in an incubation buffer (20 mM Hepes buffer (pH 7.4) containing 10 mM glucose, 145 mM sodium chloride, 4.5 mM potassium chloride, 1.2 mM magnesium chloride and 1.5 mM calcium chloride) and used as crude synaptosomal fraction.
Each well of a 96-well round-bottom plate was used for the uptake reaction in a total volume of 200 μL solution containing purgurin (final concentration 10 μM) and ascorbic acid (final concentration 0.2 mg/mL).
After 10 minutes, the uptake reaction was terminated by suction filtration onto a 96-well glass fiber filter plate. The filters were rinsed with cold physi-ological saline solution, dried thoroughly, and micro scintillation 0 (Perkin-Elmer) was added thereto. Then, the residual radioactivity on the filters was measured.
The uptake value when only solvent was added was set as 100%, the uptake value when unlabeled NE (final concentration 10 μM) was added as 0% (nonspecific uptake value), and the 50% inhibitory concentration was calculated from the concentration of the test compound and its inhibitory activity.

A short description of data set [2]: Protein binding rate test (human serum, equilibrium dialysis). Type of data set: in vitro ADME. The settings on record: test compound 0.001 mmol/L, equilibrium dialysis 37° C. 6 hours. On the procedure:
A serum sample was prepared by adding a test compound solution to a human serum (final concentration of the test compound: 0.001 mmol/L). The serum sample and Dulbecco's Phosphate-Buffered Saline (D-PBS(−)) were added to the wells separated by a dialysis membrane to start the reaction. A solution of the internal standard in methanol was prepared and used as a quenching solution.
Specifically, the dialysis membrane (cut-off molecular weight 12000-14000) was pre-conditioned by immersing it in distilled water, followed by 20% ethanol. Then, the membrane was washed with D-PBS(−) and set in an equilibrium dialysis kit. Then, 150 μL of D-PBS(−) was added to one part of each well divided by the dialysis membrane, and 150 μL of serum sample was added to the other part. After sealing all wells and incubation at 37° C. for 6 hours, 30 μL from the serum side and 90 μL from the PBS side of each well were collected and mixed with 90 μL of D-PBS(−) or 30 μL of blank serum and 480 μL of a quenching solution to quench the reaction.
The mixture was centrifuged (6130 g, 4° C., 10 minutes) and the supernatant was used as a sample for LC-MS/MS.
Peak area ratio ([peak area of test compound]/[peak area of internal standard]) was calculated for the test compound and the internal standard. By comparing the peak area ratio of the PBS side for each test compound with that of the serum side, the protein binding rate (%) of each test compound was calculated from (1-[peak area ratio of PBS side]/[peak area ratio of serum side])×100.

For a further data set, the target named is T2, dopamine (DA) uptake (Rattus norvegicus, UniProt P23977).
T2 construct: used as crude synaptosomal fraction; from tissue; host or cells: rat striatum, crude synaptosomal fraction
T2 sequence (P23977 whole entry): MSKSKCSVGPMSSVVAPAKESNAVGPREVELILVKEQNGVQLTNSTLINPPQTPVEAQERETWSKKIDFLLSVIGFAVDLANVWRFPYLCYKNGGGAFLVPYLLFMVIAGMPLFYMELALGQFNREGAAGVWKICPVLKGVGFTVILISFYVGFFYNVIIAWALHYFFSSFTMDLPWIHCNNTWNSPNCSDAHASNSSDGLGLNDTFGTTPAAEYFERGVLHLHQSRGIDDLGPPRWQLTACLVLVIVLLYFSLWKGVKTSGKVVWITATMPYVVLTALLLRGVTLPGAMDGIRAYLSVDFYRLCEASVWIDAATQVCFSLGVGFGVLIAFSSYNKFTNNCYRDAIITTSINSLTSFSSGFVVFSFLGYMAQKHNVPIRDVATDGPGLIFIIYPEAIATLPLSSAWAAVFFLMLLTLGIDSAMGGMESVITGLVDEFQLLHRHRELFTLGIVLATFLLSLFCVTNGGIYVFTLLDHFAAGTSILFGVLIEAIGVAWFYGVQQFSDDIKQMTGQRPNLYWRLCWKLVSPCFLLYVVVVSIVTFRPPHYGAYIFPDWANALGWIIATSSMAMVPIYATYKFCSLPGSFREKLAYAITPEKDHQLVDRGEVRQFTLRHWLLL
The data set can be described thus: Dopamine (DA) uptake inhibitory activity using rat brain synaptosome. Type of data set: biochemical. The settings on record: rat striatum synaptosome, tritium-labeled DA 2 nM; read-out: IC50 (nM), dopamine (DA) uptake inhibition. On the procedure:
Male Wistar rats were decapitated, each brain was removed, and the striatum was cut out. […] The homogenate was centrifuged at 1000 g at 4° C. for 10 minutes, and the supernatant was further centrifuged at 20000 g at 4° C. for 20 minutes. The pellet was suspended in an incubation buffer (20 mM Hepes buffer (pH 7.4) containing 10 mM glucose, 145 mM sodium chloride, 4.5 mM potassium chloride, 1.2 mM magnesium chloride and 1.5 mM calcium chloride) and used as crude synaptosomal fraction.
Each well of a 96-well round-bottom plate was used for the uptake reaction in a total volume of 200 μl solution containing purgurin (final concentration 10 μM) and ascorbic acid (final concentration 0.2 mg/mL). In other words, solvent, unlabeled DA or step-diluted test compound was added to each well, and one-tenth of the final volume of the synaptosomal fraction was added to each well, followed by pre-incubation at 37° C. for 10 minutes, and then tritium-labeled DA solution (final concentration 2 nM) was added and the uptake reaction was initiated at 37° C. After 10 minutes, the uptake reaction was terminated by suction filtration onto a 96-well glass fiber filter plate. The filters were rinsed with cold physi-ological saline solution, dried thoroughly, and micro scintillation 0 (Perkin-Elmer) was added thereto. Then, the residual radioactivity on the filters was measured.
The uptake value when only solvent was added was set as 100%, the uptake value when unlabeled DA (final concentration 10 μM) was added as 0% (nonspecific uptake value), and the 50% inhibitory concentration was calculated from the concentration of the test compound and its inhibitory activity.

The target in a further data set is T3, CYP3A4 (Homo sapiens, UniProt P08684).
T3 construct: a human liver microsome solution containing three CYP-specific substrates; from tissue; host or cells: human liver microsomes
T3 sequence (P08684 whole entry): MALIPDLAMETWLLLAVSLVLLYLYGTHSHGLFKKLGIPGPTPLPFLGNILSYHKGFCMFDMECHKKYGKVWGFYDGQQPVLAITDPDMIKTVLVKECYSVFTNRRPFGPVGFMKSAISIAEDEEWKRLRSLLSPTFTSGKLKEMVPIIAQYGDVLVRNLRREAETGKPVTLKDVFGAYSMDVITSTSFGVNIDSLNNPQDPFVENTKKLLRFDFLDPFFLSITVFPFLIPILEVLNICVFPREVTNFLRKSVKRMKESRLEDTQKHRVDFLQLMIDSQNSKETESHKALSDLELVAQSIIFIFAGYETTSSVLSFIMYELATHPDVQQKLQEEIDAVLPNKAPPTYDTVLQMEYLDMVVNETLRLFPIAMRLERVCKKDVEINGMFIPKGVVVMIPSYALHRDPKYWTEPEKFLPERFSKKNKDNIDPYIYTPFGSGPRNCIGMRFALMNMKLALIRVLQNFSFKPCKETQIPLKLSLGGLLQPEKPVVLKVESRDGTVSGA
As to the kind of experiment: CYP inhibition test (1): inhibition rate (%) at one concentration, CYP3A4. Type of data set: in vitro ADME. The settings on record: human liver microsomes, pH 7.4, probe midazolam (0.005 mmol/L); test compound 0.01 mmol/L, human liver microsome 0.1 mg/mL, substrate midazolam, 37° C. 10 minutes; read-out: inhibition rate (%) 3A4. How it is done:
A metabolic reaction was initiated by adding and mixing a test compound solution (final concentration 0.01 mmol/L) and a NADH/NADPH solution (final concentration 1 mmol/L) to a human liver microsome solution containing three CYP-specific substrates (final concentration 100 mmol/L potassium phosphate buffer solution (pH 7.4), 5 mmol/L magnesium chloride, 0.1 mg/mL human liver microsome, 0.005 mmol/L diclofenac (for CYP2C9), 0.01 mmol/L bufuralol (for […]), 0.005 mmol/L midazolam (for CYP3A4)). As an internal standard solution, a solution of each of stable isotopes of the metabolites (50 ng/mL [13C6] hydroxy diclofenac, 5 ng/mL [2H9] hydroxy bufuralol, and 5 ng/mL [13C6] hydroxy midazolam (all stable isotopes)) in methanol was prepared and used as a quenching solution.
Specifically, a metabolic reaction was initiated by adding and mixing 2 μL of a solution of a test compound in acetonitrile (or acetonitrile as a control) to 178 μL of a human liver microsome solution in ice water, followed by preincubation at 37° C. for 1 minute, and then adding 20 μL of a NADH/NADPH solution thereto. After incubation at 37° C. for 10 minutes, 50 μL of the reaction mixture was taken, and then it was added and mixed to 500 μL of a quenching solution to quech the reaction. The mixture was centrifuged (6130 g, 4° C., 10 minutes) and the supernatant was used as a sample for LC-MS/MS.
Peak area ratio ([peak area of metabolite]/[peak area of corresponding stable isotope]) was calculated for a metabolite and a stable isotope of the metabolite as measurement object. By comparing the peak area ratio of each test compound solution with that of the control, the inhibition rate (%) of each CYP species for each test compound was calculated from (1-[peak area ratio of each test compound solution]/[peak area ratio of control])×100.
For orientation: Liver microsomes are vesicles of endoplasmic reticulum, rich in cytochrome P450 enzymes.

T1 sequence (Q63380 1-617): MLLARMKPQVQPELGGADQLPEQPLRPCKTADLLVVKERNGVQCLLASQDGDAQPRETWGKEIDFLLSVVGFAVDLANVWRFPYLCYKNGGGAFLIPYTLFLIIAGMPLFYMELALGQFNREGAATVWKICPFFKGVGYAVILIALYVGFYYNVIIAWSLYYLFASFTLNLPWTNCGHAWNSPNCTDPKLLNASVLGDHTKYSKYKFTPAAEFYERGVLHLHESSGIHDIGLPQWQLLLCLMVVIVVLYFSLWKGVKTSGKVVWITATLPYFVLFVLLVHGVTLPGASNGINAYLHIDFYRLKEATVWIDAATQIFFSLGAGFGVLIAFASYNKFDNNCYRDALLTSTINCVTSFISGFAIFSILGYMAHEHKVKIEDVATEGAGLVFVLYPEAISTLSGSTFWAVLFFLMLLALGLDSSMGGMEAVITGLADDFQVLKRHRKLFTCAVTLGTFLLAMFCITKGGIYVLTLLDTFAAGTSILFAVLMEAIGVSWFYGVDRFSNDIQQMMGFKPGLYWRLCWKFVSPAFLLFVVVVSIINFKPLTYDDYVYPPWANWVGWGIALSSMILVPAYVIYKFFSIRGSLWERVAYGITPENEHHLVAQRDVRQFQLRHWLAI

With `Cc1c(OC(F)(F)CO)ccc(N2CC(C)(C)N[C@H]3CCCC[C@@H]32)c1F` [Example 79], the half-inhibitory concentration (IC50) (commonly the concentration needed to halve the response being measured) in data set [1] came out at 5.8 nM; at dopamine (DA) uptake, 224 nM. Moreover, the fraction unbound – broadly, the share of the substance not bound to proteins or other matrix – at 6 h, 0.001 mmol/L in data set [2] was 0.289. Moreover, on CYP3A4, the inhibition (commonly the drop in the measured response relative to a control, in per cent) at 10 min, 0.01 mmol/L stood at 17.1%.

`CC1(C)CN(c2ccc(OC(F)(F)CO)c(Cl)c2F)[C@@H]2CCCC[C@H]2N1` [Example 80]: the IC50 in data set [1] worked out at 12.4 nM; on dopamine (DA) uptake, 90 nM. This molecule also had a free fraction (fraction unbound) at 6 h, 0.001 mmol/L in data set [2] of 0.21. In addition, the inhibition at 10 min, 0.01 mmol/L at CYP3A4 is 17.6%.
